Consider one molecule from EP4600260A1, “KERATIN YK93-4, AND PREPARATION METHOD THEREFOR, PHARMACEUTICAL COMPOSITION THEREOF AND USE THEREOF” (INSTITUTE OF MATERIA MEDICA, CHINESE ACADEMY OF MEDICAL …, priority 2022, dated 2024).

Molecules are shown by their SMILES.

This data set relates to EL-4 lymphoma. To be noted: cyclophosphamide 100 mg/kg, intraperitoneal, single; routine blood analysis, P<0.05.

Procedure: Preparation of experimental animals: The experimental animals were adapted to the experimental environment (temperature 22°C±2°C, relative humidity 50%±2%) for 1 day.
Subcutaneous inoculation of EL-4 cell suspension to replicate a mouse lymphoma model: The EL-4 tumor tissue was ground into a suspension using a glass homogenizer, the tumor suspension was aspirated with a syringe, the number of live cells was calculated, the cell concentration was adjusted to 2.0*10^6/ml with physiological saline, and then the suspension was injected into the left armpit of mice with 0.2 ml/mouse. […] On the day of treatment, weight was measured, 20µl of blood was obtained from the orbital blood and the routine blood analysis was performed. The tumor blocks were stripped, weighed and photographed, and the tumor suppression rate was calculated.
The tumor suppression rate [(The average weight of the tumor in the normal control group - the average weight of the tumor in the experimental group) / The average weight of the tumor in the normal control group × 100 %] and average value, standard deviation and standard errors of tumor weight were calculated. The data from the groups were compared with each other by T.TEST, and P<0.05 was considered as a significant difference.

Turning to `O=P1(N(CCCl)CCCl)NCCCO1` (stereo not shown) [cyclophosphamide, Cyclophosphamide], the “number of leukocytes, lymphocytes, monocytes, and neutrophils” value is recorded as “significantly reduced”.
